IC50 data for two compounds are collected here from BindingDB's records for doi:10.1021/jm00142a026 (1981).

The assay concerns the target Beta-1/Beta-2/Beta-3 adrenergic receptor (Rattus norvegicus, UniProt P10608+P18090+P26255). In words: Binding affinity against Beta adrenergic receptor using [3H]dihydroalprenolol radioligand in rat brain homogenate.

Sequence of Beta-1/Beta-2/Beta-3 adrenergic receptor (P18090 whole entry): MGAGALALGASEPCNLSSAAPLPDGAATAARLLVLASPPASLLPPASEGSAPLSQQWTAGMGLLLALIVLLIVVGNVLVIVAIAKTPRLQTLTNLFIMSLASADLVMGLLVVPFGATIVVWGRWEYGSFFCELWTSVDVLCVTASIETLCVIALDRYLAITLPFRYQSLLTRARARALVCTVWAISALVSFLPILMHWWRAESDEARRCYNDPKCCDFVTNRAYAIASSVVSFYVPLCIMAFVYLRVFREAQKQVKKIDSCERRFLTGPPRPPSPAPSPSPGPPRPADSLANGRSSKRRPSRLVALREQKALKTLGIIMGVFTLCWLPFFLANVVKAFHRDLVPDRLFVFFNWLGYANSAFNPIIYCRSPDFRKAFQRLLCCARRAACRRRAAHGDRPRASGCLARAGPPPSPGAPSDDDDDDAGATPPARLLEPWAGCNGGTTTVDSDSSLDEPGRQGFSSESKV
Sequence of Beta-1/Beta-2/Beta-3 adrenergic receptor (P26255 whole entry): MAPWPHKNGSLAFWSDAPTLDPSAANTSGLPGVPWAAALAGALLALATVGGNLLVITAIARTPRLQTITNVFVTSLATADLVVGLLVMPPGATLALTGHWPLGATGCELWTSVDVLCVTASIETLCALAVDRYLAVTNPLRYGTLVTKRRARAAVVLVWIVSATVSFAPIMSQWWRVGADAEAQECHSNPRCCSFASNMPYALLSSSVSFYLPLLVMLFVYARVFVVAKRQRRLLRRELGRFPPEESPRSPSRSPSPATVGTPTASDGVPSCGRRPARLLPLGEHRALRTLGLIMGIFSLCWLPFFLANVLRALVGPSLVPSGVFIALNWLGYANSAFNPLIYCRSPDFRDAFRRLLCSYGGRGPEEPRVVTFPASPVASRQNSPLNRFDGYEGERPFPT
Sequence of Beta-1/Beta-2/Beta-3 adrenergic receptor (P10608 whole entry): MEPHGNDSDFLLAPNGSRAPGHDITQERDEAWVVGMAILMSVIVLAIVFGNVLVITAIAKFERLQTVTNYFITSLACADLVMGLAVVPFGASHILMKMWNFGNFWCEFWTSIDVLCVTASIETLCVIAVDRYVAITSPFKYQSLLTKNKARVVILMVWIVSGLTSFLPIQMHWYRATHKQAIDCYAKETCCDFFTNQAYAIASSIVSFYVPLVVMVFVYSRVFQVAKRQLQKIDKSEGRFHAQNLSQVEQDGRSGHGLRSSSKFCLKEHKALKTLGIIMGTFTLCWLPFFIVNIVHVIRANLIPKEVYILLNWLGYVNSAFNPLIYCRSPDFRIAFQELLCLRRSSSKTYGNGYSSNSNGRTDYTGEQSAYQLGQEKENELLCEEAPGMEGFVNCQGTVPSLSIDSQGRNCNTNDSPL

As to `CNCC(c1ccc(O)c(O)c1)S(=O)(=O)O` (configuration not stated), the IC50 – broadly, the concentration at which inhibition is half-maximal – worked out at 110 µM. `NCC(c1ccc(O)c(O)c1)S(=O)(=O)O` (configuration not stated) showed an IC50 of 130 µM. The IC50 values of the last two compounds are within 1.5-fold of each other.
